Legend:
[1] = Oscillatory rheology of hydrogels; assay type: physicochemical; details: for k (growth rate constant) / kn (nucleation rate constant): fit of Equation (1) to gelation kinetics; for dG: fit of Equation (1), increment in storage modulus during the kinetics; for Initial time lag before the significant rise in G′: gelation kinetics, 0.001% strain; for Initial time lag before the significant rise in G′ / G′ / G″: 25 °C; for Initial time lag before the significant rise in G′ / Thermal stability of gel (variation of G′): 1 Hz; for Thermal stability of gel (variation of G′): heating–cooling cycle between 25 and 40 °C, 1 °C/min, strain 0.005%; for G′ / G″: hydrogel at structural equilibrium, frequency sweep 100 to 0.1 Hz, strain 0.01%
Description: This is due to the rather small deformation used during this test to allow gel formation without disturbing the build-up of the network structure. In contrast to this, see the data for compounds 1 and 2. A two-step model is often used to describe the nucleation (with rate constant kn) and growth (with rate constant k) of aggregates of peptides:(1) f(t) = G0 + dGρ(e^(1+ρ)kt − 1)/1 + ρe^(1+ρ)kt where ρ = kn/k , G0 is the initial storage modulus of the aggregate-free solution, and dG is the increment in the storage modulus during the kinetics.
After reaching the structural equilibrium established by the reading of constant shear moduli G′ and G″ with time, a frequency-sweep from 100 down to 0.1 Hz was performed with a strain of 0.01% (Figure S6 in Supplementary Information). For hydrogels obtained from compounds 1, 2, and 3, G′ is essentially constant over the frequency domain tested, and it is 10 times larger than G″. Overall, all mechanical spectra are qualitatively similar and reminiscent of the rheological signature of gels, as G′ is higher than G″ for hydrogels of compounds 1–3 (Table 3). ′
After the thermal cycle, gels were submitted to a strain sweep, where the frequency was maintained at 1 Hz. The hydrogels of compounds 2 and 1 break up more easily than hydrogel of compound 3 (Figure 7). […] In summary, and connecting the rheological data to the structural information inferred from both STEM and CD, coil conformers of compound 2 rapidly self-assemble to build a rubber-like (entropic) network, which brings most of the gel elasticity. This is in contrast to the elastically weaker gels of compound 3, which are predominantly made from the networking of fibrils likely formed from beta conformers. Gels of compound 1 show intermediate elasticity, originating from the slower networking of a mixture of coil and beta sheet conformers.
The viscoelastic characterization of hydrogels was performed with a stress-controlled rotational rheometer Anton Paar MCR300 (Anton Paar GmbH, Graz, Austria). Gel-forming solutions were loaded in the shearing geometry (a Couette cell with 1 mL volume and 0.5 mm gap) at 25 °C. The liquid sample was pre-sheared at a shear rate of 5 s^−1 during one minute to homogenize the sample in the shearing geometry. Then, the gelation kinetics was monitored during 10 h by applying a small amplitude (0.001%) oscillatory shear at 1 Hz and recording both storage (G′) and loss (G″) moduli at each second. Then, mechanical spectra were recorded, and gels were submitted to a heating–cooling cycle between 25 and 40 °C at a rate of +/−1 °C/min. Finally, gels were submitted to a strain sweep.

[2] = Gelation study, pH trigger with GdL, vial inversion test; assay type: physicochemical; details: for pH (gelation conditions): pH of hydrogel at cgc after GDL 0.4 wt %; for Critical Gelation Concentration (cgc): vial inversion test, water, NaOH (1 M) to circa pH 10, then GDL 0.4 wt %
Description: Nonetheless, dimeric dehydropeptides 1–4 could be dissolved in water upon pH adjustment to pH 10–11, which was achieved by addition of NaOH solution (1 M). Gel formation was triggered by a slow pH drop. The pH change was obtained by the aqueous hydrolysis of added D-glucono-δ-lactone (GdL) to D-gluconic acid. […] The CGCs of hydrogels 1–3 were qualitatively assessed by varying the peptide concentrations and conducting vial inversion tests.
Dehydrodipeptides 1, 2 and 3 were weighed into sample vials, water was added, and the suspension was adjusted under magnetic stirring to circa pH 10 (pH meter) by the addition of NaOH (1 M), and D-glucono-δ-lactone (GDL) was added. The solutions were left standing overnight at room temperature (20–25 °C).

[3] = Sustained release assay of model cargo from hydrogels
Protocol: Hydrogels containing cationic, anionic, or zwitterionic model drugs were prepared using the same conditions described in Section 2.2 but with the water component (1 mL) being replaced by a methylene blue solution, methyl orange solution, or ciprofloxacin solution. In a modified version of the method described by Abraham et al., water was carefully layered on top of the hydrogel surface. Then, the percentage release of model drug was recorded versus time, over 6 days, through UV absorption measurements or by HPLC and then subsequently fitted to a standard calibration curve (Figure S10 in Supplementary Information). The experiments were also assessed visually (Figure 9). […] In the studies involving the release of methyl orange, a clearly visible release of the anionic dye into the layered water solution was observed from the three hydrogels after several days (Figure 9B,D,F centre). The results for the release of methyl orange were also confirmed quantitatively by UV absorption measurements. Hydrogelators 1 and 3, which contain a phenylalanine residue, release nearly 60% of the anionic methyl orange cargo, whereas hydrogel 2, containing a tyrosine residue, released more than 90%. […] Ciprofloxacin was included as an overall neutral cargo. In experiments involving hydrogels of compounds 1–3 containing ciprofloxacin, the amount of ciprofloxacin present in the above water layer was determined by HPLC at various time-points. Hydrogelators 1, 2, and 3 release 32%, 58%, and 20% of their ciprofloxacin cargo, respectively (Table 4) (Figure S11 in Supplementary Information). As observed for methyl orange, the hydrogel that releases the greatest amount of ciprofloxacin is the hydrogel obtained from compound 2 (Table 4, Figure S11 in Supplementary Information).
To quantitatively evaluate the drug release from hydrogels 1–3, several mathematical models were tested to see which one fits the tested hydrogels. The Korsmeyer–Peppas model is the preferred model for polymeric systems. Korsmeyer described a simple relationship that described drug release from a polymeric system that includes both the diffusion and erosion of the polymer chain. The following equation describes the Korsmeyer–Peppas model: Mt/M = Kt^n
Hydrogels of 1, 2, and 3 were prepared as described in Section 4.2 to form 1 mL hydrogels containing the same concentration of the hydrogelators described above and the appropriate cargo (methylene blue ([…]), methyl orange (0.2 nM), or ciprofloxacin (0.2 nM)), in a slightly modified version of the procedure described by Abraham et al.. After allowing to stand overnight, 1.5 mL of water was carefully added to the surface of the hydrogels. Aliquots of the layered solution (100 μL) were removed at 1 h, 2 h, 3 h, 4 h, 6 h, 24 h, 72 h, and 6 days from the time the water was initially layered on top of the hydrogel. After removing each aliquot, the volume water was immediately replaced by an equal volume of water. The concentration of methylene blue or methyl orange in each aliquot was determined by measuring the absorbance at λmax of the dye (666 nm for methylene blue and 465 nm for methyl orange) using a microplate reader and then converting the value to percentage release (using a standard calibration curve). The concentration of ciprofloxacin in each aliquot was determined using analytical HPLC, where the integrated peak area was converted to a percentage release (using a standard calibration curve). Each experiment was performed in triplicate, and the mean percentage cargo release was plotted against time.

[4] = system: HaCaT cell line (human keratinocytes); experiment: MTT assay, cell viability; assay type: cell-based; details: 24 h; for Apparent loss of cell viability (mitochondrial activity): most concentrations tested, independent of concentration
Protocol: Human keratinocytes cell line HaCaT was from ATCC. Cells were cultured in DMEM supplemented with 10% FBS and 1% penicillin/streptomycin and were incubated at 37 °C, in a humidified atmosphere of 5% CO2.
Cells were seeded in 96-well plates (1.5 × 10^4 cells/well) and left to attach for 24 h. After this period, cells were incubated with different concentrations of the molecules under study for another 24 h. Then, cell viability was evaluated based on the ability of metabolically active cells to convert MTT to formazan over the course of 2 h. Absorbances were measured at 570 nm in a Multiskan GO plate reader (Thermo Fisher Scientific; Waltham, MA, USA) and results were expressed as percentage of the respective control and correspond to the mean ± standard error of the mean (SEM) of at least three independent experiments performed in triplicate. On the other hand, to assess the release of the stable cytosolic enzyme lactate dehydrogenase (LDH) into the media, 24 h after the incubation of the cells with the different concentrations of the molecules under study, 40 µL of culture media were removed to a 96-well plate. LDH released was determined using a CytoTox 96® assay kit (Promega; Madison, WI, USA) according to the manufacturer’s instructions. Then, 1% Triton X-100 was used as positive control to assure cell lysis (30 min). Absorbances were measured at 490 nm in a Multiskan GO plate reader (Thermo Fisher Scientific; Waltham, MA, USA), and results correspond to the fold-increase of absorbance in treated vs. untreated cells of three independent experiments performed in duplicate. Following assessment of the distribution of the results, ANOVA was performed using GraphPad Prism 8.0 (GraphPad Prism Inc., San Diego, CA, USA).

[5] = Cbz-capped dehydrodipeptides; cited from earlier work
Protocol: Our research group, and others, have reported new dehydropeptides capable of forming hydrogels. The presence of a dehydroamino acid residue imparts increased proteolytic resistance into the hydrogels, as well as different physical properties arising from the decreased structural flexibility of the dehydropeptide chain [13, 14, 15, 16]. In our laboratories, several dehydrodipeptides capped on the N-terminus with naproxen (e.g., Npx-L-Phe-Z-ΔPhe-OH and Npx-L-Trp-Z-ΔPhe-OH) were prepared and tested as hydrogelators, providing hydrogels with critical gelation concentrations (CGCs) of between ... || Figure 1 (A) Our previously studied naproxen- and carboxybenzyl-capped dehydropeptide hydrogelators. (B) Examples of bolaamphiphilic hydrogelators in the literature. (C) Summary of hydrogel properties. (D) Combining the structures of N-capped dehydrohydropeptide gelators and bolaamphiphilic gelators into a single molecule. TEXT PRINTED IN THE PICTURE: (C) a: cgc (wt%): 0.4 (pH: 8.0) | (C) b: cgc (wt%): 0.4 (pH: 6.0) | (C) c: cgc (wt%): 0.1 (pH: 5.0) | (C) d: cgc (wt%): 0.2 (pH: 5.0) | (C) e: cgc (wt%): 2.5 (pH: 2.0) | (C) f: cgc (wt%): 5.0 (pH: 3.3)

[6] = standing overnight at room temperature (20–25 °C)

dG [1] [Pa] | Thermal stability of gel (variation of G′) [1] | G′ [1] | G″ [1] | pH (gelation conditions) [2] | Critical Gelation Concentration (cgc) ([2]; overnight at room temperature) | Critical Gelation Concentration (cgc) [2, 6] | G0 ([1]; fit of Equation (1) (Saitô) to gelation kinetics, initial storage modulus) [Pa] | Hydrogel formation ([2]; slow pH drop by GdL hydrolysis from pH 10–11, for 4 several triggers (pH, temperature, solvent exchange), 0.3–0.8 wt %) | Molecule | k (growth rate constant) [1] [h⁻¹] | kn (nucleation rate constant) [1] [h⁻¹] | Initial time lag before the significant rise in G′ [1] [s] | K, release rate constant, Korsmeyer–Peppas model ([3]; ciprofloxacin release profile) | n, release exponent, Korsmeyer–Peppas model ([3]; ciprofloxacin release profile) | K, release rate constant, Korsmeyer–Peppas model ([3]; methyl orange release profile) | n, release exponent, Korsmeyer–Peppas model ([3]; methyl orange release profile) | Apparent loss of cell viability (mitochondrial activity) [4] | Effect on HaCaT viability [4] | Loss of mitochondrial activity ([4]; the two highest concentrations) | CGC [5] [%]
2392 ± 66 | not thermally sensitive | 2.5 × 10^3 Pa | 6.5 × 10^1 Pa | 5.10 | 4.0 mM | 0.3 wt % |  |  | O=C(O)/C(=C/c1ccccc1)NC(=O)[C@H](Cc1ccccc1)NC(=O)c1ccc(C(=O)N[C@@H](Cc2ccccc2)C(=O)N/C(=C\c2ccccc2)C(=O)O)cc1 [Compound 1] | 0.18 ± 0.10 | 0.40 ± 0.04 | 2300 | 0.0200 | 0.3300 | 0.0200 | 0.4000 | around 20% |  |  | 
5722 ± 39 | shows a thermal hysteresis | 4.5 × 10^3 Pa | 1.4 × 10^2 Pa | 4.15 | 5.1 mM | 0.4 wt % | 0 ± 25 |  | O=C(O)/C(=C/c1ccccc1)NC(=O)[C@H](Cc1ccc(O)cc1)NC(=O)c1ccc(C(=O)N[C@@H](Cc2ccc(O)cc2)C(=O)N/C(=C\c2ccccc2)C(=O)O)cc1 [Compound 2] | 1.84 ± 0.04 | 0.02 ± 0.001 | 4600 | 0.0030 | 0.5800 | 0.0900 | 0.2700 |  | mostly devoid of any effect | around 10% | 
 |  | 3.7 × 10^2 Pa | 1.3 × 10^1 Pa | 5.30 | 3.7 mM | 0.3 wt % |  |  | O=C(O)/C(=C/c1ccccc1)NC(=O)[C@H](Cc1ccccc1)NC(=O)c1ccc2cc(C(=O)N[C@@H](Cc3ccccc3)C(=O)N/C(=C\c3ccccc3)C(=O)O)ccc2c1 [Compound 3] |  |  |  | 0.0001 | 0.6300 | 0.0400 | 0.3300 | around 20% |  |  | 
 |  |  |  |  | No hydrogel | No hydrogel |  | failed to give hydrogels | O=C(O)/C(=C/c1ccccc1)NC(=O)[C@H](Cc1ccc(O)cc1)NC(=O)c1ccc2cc(C(=O)N[C@@H](Cc3ccc(O)cc3)C(=O)N/C(=C\c3ccccc3)C(=O)O)ccc2c1 [Compound 4] |  |  |  |  |  |  |  | around 20% |  |  | 
 |  |  |  |  |  |  |  |  | Cbz-L-Phe-Z-ΔPhe-OH |  |  |  |  |  |  |  |  |  |  | 0.1
 |  |  |  |  |  |  |  |  | Cbz-L-Tyr-Z-ΔPhe-OH |  |  |  |  |  |  |  |  |  |  | 0.1

— article PMC8162347, “Bolaamphiphilic Bis-Dehydropeptide Hydrogels as Potential Drug Release Systems” (Gels, 2021)
